Test results from US20170266152A1, “PHARMACEUTICAL COMPOSITION, METHODS FOR TREATING AND USES THEREOF” (Boehringer Ingelheim International GmbH, priority 2016, published 2017).

Assays:
[1] = Clinical studies of haemodynamic, vascular and autonomic cardiovascular effects of empagliflozin; type: in vivo
Description: It may be assumed that altered glucose and sodium gradients within the kidney may generate a sympathoinhibitory afferent renal nerve signal. The lack of sympathetic activation may contribute to a beneficial cardiovascular and renal profile of empagliflozin (cardiorenal axis). Based on clinical and non-clinical studies including mechanistic considerations, such as the effect of empagliflozin on human autonomic cardiovascular regulation, the use of empagliflozin in the treatment and prevention of certain diseases and conditions, in particular in chronic heart failure, acute heart failure and chronic kidney disease, is described hereinbefore and hereinafter.

[2] = patients with type 2 diabetes mellitus and high cardiovascular risk; cited from earlier work
[3] = Cherney et al. 2014; cited from earlier work
[4] = crystalline form (WO 2006/117359, WO 2011/039107); cited from earlier work
[5] = metformin on its own, in the diabetic; cited from earlier work

| Compound | reflex-mediated sympathetic activation ([1]; in contrast to increases observed with diuretics) | blood pressure ([1]; treatment with empagliflozin) | heart rate ([1]; treatment with empagliflozin) | rate pressure product (RPP), surrogate marker of cardiac oxygen demand ([1]; treatment with empagliflozin) | risk of hospitalization for heart failure [2] | arterial stiffness [3] | direct vascular effects [3] | diuretic effect [3] | physico-chemical stability [4] | solubility [4] | average improvement in the HbA1c value [5] |
| --- | --- | --- | --- | --- | --- | --- | --- | --- | --- | --- | --- |
| OC[C@H]1O[C@@H](c2ccc(Cl)c(Cc3ccc(O[C@H]4CCOC4)cc3)c2)[C@H](O)[C@@H](O)[C@@H]1O [empagliflozin, 1-chloro-4-(β-D-glucopyranos-1-yl)-2-[4-((S)-tetrahydrofuran-3-yloxy)-benzyl]-benzene] | not being associated with clinically relevant reflex-mediated sympathetic activation | blood pressure reductions | without clinically relevant changes of the heart rate | improving rate pressure product | reduced the risk | reduced arterial stiffness | direct vascular effects | shows a diuretic effect | physico-chemically stable | good solubility properties |  |
| CN(C)C(=N)N=C(N)N [metformin] |  |  |  |  |  |  |  |  |  |  | 1.0-1.5% |
